Publication PMC7732025 (Archives of pharmacal research, 2013)

Columns and labels:
[1] = Cytotoxic assay, VERO cells; assay type: cell-based; conditions: African green monkey
[2] = Cytotoxic assay, primary human PBM cells; assay type: cell-based; conditions: human, primary human PBM cells
[3] = in vitro; conditions: human, CEM cells
[4] = test system: HIV-1; test: Anti-HIV-1 assay in activated primary human PBM cells; assay type: cell-based, human immunodeficiency virus type 1; conditions: for EC50: read-out: Anti-HIV-1 activity in human PBM cells EC50
[5] = test system: VERO cells; test: Cytotoxic assay, VERO cells; assay type: cell-based
[6] = test system: primary human PBM cells; test: Cytotoxic assay, primary human PBM cells; assay type: cell-based; conditions: primary human PBM cells (lymphocytes)
[7] = test system: CEM cells

SMILES | IC50 at 5 day [1] [µM] | IC50 at 5 day [2] [µM] | IC50 at 5 day [3] [µM] | EC50 [4] [µM] | toxicity in VERO cells (in words) [5] | toxicity in primary human PBM cells (in words) [6] | anti-HIV-1 activity (in words) [4] | toxicity in CEM cells (in words) [7]
CC(=NNC(=O)CN1c2c(-c3ccccc3)n[nH]c2-c2ccccc2S1(=O)=O)c1cc(C)oc1C [5t, N′-(1-(2,5-dimethylfuran-3-yl)ethylidene)-2-(5,5-dioxido-3-phenylbenzo[e]pyrazolo[4,3-c][1,2]thiazin-4(1H)-yl)acetohydrazide] | 41.4 | 17.3 | 9.9 | – | – | – | – | –
CC(=NNC(=O)CN1c2c(-c3ccccc3)n[nH]c2-c2ccccc2S1(=O)=O)c1sccc1C [5b, 2-(5,5-Dioxido-3-phenylbenzo[e]pyrazolo[4,3-c][1,2]thiazin-4(1H)-yl)-N′-(1-(3-methylthiophen-2-yl)ethylidene)acetohydrazide] | 75.3 | 56.2 | 13.1 | 11.6 | – | – | – | –
CC(=NNC(=O)CN1c2c(-c3ccccc3)n[nH]c2-c2ccccc2S1(=O)=O)c1ccc2ccccc2c1 [5l, 2-(5,5-Dioxido-3-phenylbenzo[e]pyrazolo[4,3-c][1,2]thiazin-4(1H)-yl)-N′-(1-(naphthalen-2-yl)ethylidene)acetohydrazide] | < 1 | 12.2 | 24.2 | – | – | – | – | –
CC(=NNC(=O)CN1c2c(-c3ccccc3)n[nH]c2-c2ccccc2S1(=O)=O)c1cc(C)cs1 [5j, 2-(5,5-Dioxido-3-phenylbenzo[e]pyrazolo[4,3-c][1,2]thiazin-4(1H)-yl)-N′-(1-(4-methylthiophen-2-yl)ethylidene)acetohydrazide] | 6 | > 100 | 18.3 | 13.3 | – | – | – | –
CC(=NNC(=O)CN1c2c(-c3ccccc3)n[nH]c2-c2ccccc2S1(=O)=O)c1ccsc1 [5c, 2-(5,5-Dioxido-3-phenylbenzo[e]pyrazolo[4,3-c][1,2]thiazin-4(1H)-yl)-N′-(1-(thiophen-3-yl)ethylidene)acetohydrazide] | 78.7 | 73.2 | 10.7 | – | no toxicity | no toxicity | – | –
O=C(CN1c2c(-c3ccccc3)n[nH]c2-c2ccccc2S1(=O)=O)NN=Cc1cccs1 [5w, 2-(5,5-Dioxido-3-phenylbenzo[e]pyrazolo[4,3-c][1,2]thiazin-4(1H)-yl)-N′-(thiophen-2-ylmethylene)acetohydrazide] | 41.8 | 30.6 | 13.9 | – | no toxicity | no toxicity | – | –
CC(=NNC(=O)CN1c2c(-c3ccccc3)n[nH]c2-c2ccccc2S1(=O)=O)c1ccncc1 [5v, 2-(5,5-Dioxido-3-phenylbenzo[e]pyrazolo[4,3-c][1,2]thiazin-4(1H)-yl)-N′-(1-(pyridin-4-yl)ethylidene)acetohydrazide] | 84.1 | 75.6 | 34.5 | – | – | – | inactive | –
CC(=NNC(=O)CN1c2c(-c3ccccc3)n[nH]c2-c2ccccc2S1(=O)=O)c1ccc(Cl)s1 [5g, N′-(1-(5-chlorothiophen-2-yl)ethylidene)-2-(5,5-dioxido-3-phenylbenzo[e]pyrazolo[4,3-c][1,2]thiazin-4(1H)-yl)acetohydrazide] | 57.4 | 13.9 | 8.4 | – | – | – | – | –
CC(=NNC(=O)CN1c2c(-c3ccccc3)n[nH]c2-c2ccccc2S1(=O)=O)c1ccc(Br)s1 [5p, N′-(1-(5-bromothiophen-2-yl)ethylidene)-2-(5,5-dioxido-3-phenylbenzo[e]pyrazolo[4,3-c][1,2]thiazin-4(1H)-yl)acetohydrazide] | 18.1 | 10.5 | < 1 | – | – | – | – | –
CC(=NNC(=O)CN1c2c(-c3ccccc3)n[nH]c2-c2ccccc2S1(=O)=O)c1ccc(C)o1 [5s, 2-(5,5-Dioxido-3-phenylbenzo[e]pyrazolo[4,3-c][1,2]thiazin-4(1H)-yl)-N′-(1-(5-methylfuran-2-yl)ethylidene)acetohydrazide] | > 100 | 53.8 | 15.4 | – | – | – | inactive | –
CC(=NNC(=O)CN1c2c(-c3ccccc3)n[nH]c2-c2ccccc2S1(=O)=O)c1sccc1Cl [5e, N′-(1-(3-chlorothiophen-2-yl)ethylidene)-2-(5,5-dioxido-3-phenylbenzo[e]pyrazolo[4,3-c][1,2]thiazin-4(1H)-yl)acetohydrazide] | > 100 | 69.1 | 16.8 | – | non-toxic | non-toxic | – | –
CC(=NNC(=O)CN1c2c(-c3ccccc3)n[nH]c2-c2ccccc2S1(=O)=O)c1ccc(C)s1 [5m, 2-(5,5-Dioxido-3-phenylbenzo[e]pyrazolo[4,3-c][1,2]thiazin-4(1H)-yl)-N′-(1-(5-methylthiophen-2-yl)ethylidene)acetohydrazide] | 30.6 | 62.3 | 13.8 | – | – | – | – | –
CC(=NNC(=O)CN1c2c(-c3ccccc3)n[nH]c2-c2ccccc2S1(=O)=O)c1sccc1Br [5f, N′-(1-(3-bromothiophen-2-yl)ethylidene)-2-(5,5-dioxido-3-phenylbenzo[e]pyrazolo[4,3-c][1,2]thiazin-4(1H)-yl)acetohydrazide] | > 100 | 42.8 | 19.6 | – | – | – | – | –
CC(=NNC(=O)CN1c2c(-c3ccccc3)n[nH]c2-c2ccccc2S1(=O)=O)c1cc(C)sc1C [5d, N′-(1-(2,5-dimethylthiophen-3-yl)ethylidene)-2-(5,5-dioxido-3-phenylbenzo[e]pyrazolo[4,3-c][1,2]thiazin-4(1H)-yl)acetohydrazide] | 44.4 | 36.5 | 17.6 | – | – | – | – | –
CC(=NNC(=O)CN1c2c(-c3ccccc3)n[nH]c2-c2ccccc2S1(=O)=O)c1ccc2c(c1)OCCO2 [5q, N′-(1-(2,3-dihydrobenzo[b][1,4]dioxin-6-yl)ethylidene)-2-(5,5-dioxido-3-phenylbenzo[e]pyrazolo[4,3-c][1,2]thiazin-4(1H)-yl)acetohydrazide] | > 100 | 67.1 | 23.9 | – | non-toxic | non-toxic | – | –
CC(=NNC(=O)CN1c2c(-c3ccccc3)n[nH]c2-c2ccccc2S1(=O)=O)c1sc(N)nc1C [5h, N′-(1-(2-amino-4-methylthiazol-5-yl)ethylidene)-2-(5,5-dioxido-3-phenylbenzo[e]pyrazolo[4,3-c][1,2]thiazin-4(1H)-yl)acetohydrazide] | > 100 | > 100 | > 100 | – | no toxicity | no toxicity | – | no toxicity
CC(=NNC(=O)CN1c2c(-c3ccccc3)n[nH]c2-c2ccccc2S1(=O)=O)c1cc2ccccc2oc1=O [5k, 2-(5,5-Dioxido-3-phenylbenzo[e]pyrazolo[4,3-c][1,2]thiazin-4(1H)-yl)-N′-(1-(2-oxo-2H-chromen-3-yl)ethylidene)acetohydrazide] | > 100 | 82.7 | 27.8 | – | non-toxic | non-toxic | – | –
CC(=NNC(=O)CN1c2c(-c3ccccc3)n[nH]c2-c2ccccc2S1(=O)=O)c1ccc[nH]1 [5o, N′-(1-(1H-pyrrol-2-yl)ethylidene)-2-(5,5-dioxido-3-phenylbenzo[e]pyrazolo[4,3-c][1,2]thiazin-4(1H)-yl)acetohydrazide] | 22.3 | 41.4 | 20 | – | – | – | – | –
CC(=NNC(=O)CN1c2c(-c3ccccc3)n[nH]c2-c2ccccc2S1(=O)=O)c1cc2ccccc2o1 [5n, N′-(1-(benzofuran-2-yl)ethylidene)-2-(5,5-dioxido-3-phenylbenzo[e]pyrazolo[4,3-c][1,2]thiazin-4(1H)-yl)acetohydrazide] | 23 | > 100 | 22.4 | – | – | – | inactive | –
CC(=NNC(=O)CN1c2c(-c3ccccc3)n[nH]c2-c2ccccc2S1(=O)=O)c1cc(Cl)sc1Cl [5i, N′-(1-(2,5-dichlorothiophen-3-yl)ethylidene)-2-(5,5-dioxido-3-phenylbenzo[e]pyrazolo[4,3-c][1,2]thiazin-4(1H)-yl)acetohydrazide] | 38.8 | 12.2 | 14.4 | – | toxic | toxic | – | toxic
CC(=NNC(=O)CN1c2c(-c3ccccc3)n[nH]c2-c2ccccc2S1(=O)=O)c1ccc([N+](=O)[O-])s1 [5r, 2-(5,5-Dioxido-3-phenylbenzo[e]pyrazolo[4,3-c][1,2]thiazin-4(1H)-yl)-N′-(1-(5-nitrothiophen-2-yl)ethylidene)acetohydrazide] | 43.6 | 85 | 5 | – | – | – | – | –
CC(=NNC(=O)CN1c2c(-c3ccccc3)n[nH]c2-c2ccccc2S1(=O)=O)c1cccs1 [5a, 2-(5,5-Dioxido-3-phenylbenzo[e]pyrazolo[4,3-c][1,2]thiazin-4(1H)-yl)-N′-(1-(thiophen-2-yl)ethylidene)acetohydrazide] | 77.2 | 88 | 23.3 | 11.2 | no toxicity | no toxicity | – | –
CC(=NNC(=O)CN1c2c(-c3ccccc3)n[nH]c2-c2ccccc2S1(=O)=O)c1nccs1 [5u, 2-(5,5-Dioxido-3-phenylbenzo[e]pyrazolo[4,3-c][1,2]thiazin-4(1H)-yl)-N′-(1-(thiazol-2-yl)ethylidene)acetohydrazide] | 43.1 | 15.7 | 8.2 | – | – | – | – | –
